Laboratory results as given in patent US5466689A, “Morpholine derivatives and their use” (Takeda Chemical Industries, Ltd., priority 1993, dated 1995).

Legend:
Substance-P = experiment: Action of Substance-P for inhibiting biting response by its administration at subarachnoid space; format: in vivo, Jcl:ICR mice; conditions: mice; dosage 10 μg/mouse; SP 10 ng/5 μl/mouse at subarachnoid space; bitings counted for one minute
Procedure: Action of Substance-P for inhibiting biting response by its administration at subarachnoid space
Five-week old male Jcl:ICR mice (10 animals per group) were employed. Dorsal cutaneous incisions were made under anesthesia at least one hour before the experiments. Substance-P (SP) was administered in an amount of 10 ng/5 μl/mouse at the subarachnoid space of the spinal cord. Then the test animals started to bite themselves at the abdomen alternately. The number of bitings was counted for one minute immediately after the SP administration. The values thus obtained were made indexes of pseudo pain reflexes caused by SP.
Test drugs were dissolved in a solution (Tween 80:ethanol:physiological saline=20:10:70) together with a given amount of SP. The solutions thus prepared were administered to test animals. In the case of oral administration, 5% suspension of gum arabica was employed, which was administered at 30 minutes before the SP administration.
The inhibition rate (%) of each sample was calculated by the following formula. Inhibition rate (%)=(number of counts in the control group-numberof counts in each sample)/(number of counts in the control group)×100.
And, 50% inhibition dose (ID50) was calculated from the primary linear regression line of dose-dependent curve.

Writhing = experiment: Acetic acid-writhing method; format: in vivo, Slc:ICR mice; conditions: mice, 0.6% acetic acid i.p. 30 min later, writhing during 20 minutes
Procedure: Acetic acid-writhing method
Male Slc:ICR mice of four-week old (10 animals per group) were employed. Test compounds were orally administered. Thirty minutes later, purified water containing 0.6% acetic acid was injected intraperitoneally (0.1 ml/10 g body weight). Writhing shown by the test animals during 20 minutes was observed on individual animals.
On each test animal, the inhibition rate against the average response times in the control group was calculated. The test compound was administered as a 5% suspension of gum arabica.

[1] = acute toxicity (LD50), oral, rats; conditions: rat, in vivo, orally administered to rats
Text: Therefore, the compounds of this invention and their salts can be used for prophylaxis or therapy of diseases including pain due to bone diseases (arthritis, rheumatic fever, osteoporosis), pain induced by cancer or the like, lumbago, postoperative pain, neuralgia, pain induced by inflammatory diseases, pain caused by tooth extraction, tooth-ache and pain due to burn trauma, as well as neurosis (e.g. anxiety neurosis, depression, mental disorder), somnipathy or the like. Since the compounds of this invention act on a neurotransmitting system such as dopamine or norepinephrine, they can be used also as prophylactic and therapeutic drugs for circulatory diseases (e.g. hypertension).

Row | Structure (SMILES) | Inhibition rate (%), antagonistic action to Substance-P (biting response) (Substance-P) [%] | Inhibition rate (%), analgesic action (writhing) (Writhing; 25 mg/kg,p.o.) [%] | LD50 [1] [mg/kg] | Inhibition rate (%), analgesic action (writhing) (Writhing; 12.5 mg/kg,p.o.) [%]
1 | C=C[C@]12OCCN(CC)[C@@H]1Cc1c[nH]c3cccc2c13 (relative stereo) [Example 1, Trans-4,6,6a,8,9,10a-hexahydro-7-ethyl-10a-vinyl-7H-indolo[3,4-gh][1.4]benzoxazine] | 80 |  |  | 
2 | CCN1CCO[C@]2(C)c3c(OC)ccc4[nH]cc(c34)C[C@@H]12 (relative stereo) [Example 2, Trans-4,6,6a,8,9,10a-hexahydro-7-ethyl-1-methoxy-10a-methyl-7H-indole[3,4-gh][1.4]benzoxazine] | 100 | 99 | ≥ 100 | 
3 | CCN1CCO[C@]2(C)c3cccc4[nH]cc(c34)C[C@@H]12 (relative stereo) [Example 8, Trans-4,6,6a,8,9,10a-hexahydro-7-ethyl-10a-methyl-7H-indolo[3,4-gh][1,4]benzoxazine] | 65 |  |  | 61
